Measurements: patent US9447062B2, “Manumycin-type metabolite called Colabomycin E which inhibits caspase 1 and creation of interleukins, strain produces the Colabomycin E and a method of a production of the Colabomycin E” (BIOLOGY CENTRE AS CR, v. v. i., priority 2014, dated 2016)

Tests used:
[1] = tested on: IL-1β release from THP-1 cells (caspase 1); assay: IL-1β release from TNFα-stimulated THP-1 cells; assay type: cell-based, human; settings: for concentration at which the dose curve reached an inhibitory plateau (IL-1β release) / concentration from which IL-1β release is significantly inhibited: TNFα 50 ng/ml
Protocol: (§1) Antibacterial activity of colabomycin E was tested by disc diffusion method. The strains were cultivated on MH agar plates at 36° C., aerobically for 18 hrs. For streptococci the media was supplemented with 5% sheep blood and the bacteria were cultivated aerobically for 20 hrs in 5% CO2. Colabomycin E samples dissolved in dioxane were applied to standard 6 mm discs; therefore zone diameters below 7 mm indicate no growth inhibition. The anti-inflammatory effect of colabomycin E was assayed on the TNFα-stimulated human monocyte/macrophage cell line THP-1. The cells were cultured in RPMI-1640 medium, supplemented with 10% heat inactivated fetal calf serum (FCS), L-glutamine, penicillin and streptomycin. Cells were seeded into 6-well tissue culture plates at a density of 2×10^6 cells per 2 ml per well and cultured under a 5% CO2 atmosphere at 37° C. THP-1 cells were stimulated with TNFα (50 ng/ml) under serum free conditions in the presence of colabomycin or manumycin A.
Unstimulated cells were used as controls. IL-1β release was measured through flow cytometry in culture supernatants by Fluorokine MAP human base kit A using the Luminex^100 System. In the first step, 50 μl of the samples/standards were incubated with 50 μl of microparticles for 3 hours at RT on a horizontal orbital microplate shaker. After washing the unbound substances, 50 μl of the secondary antibodies conjugated with biotin was added to each well and incubated the samples/standards for another 1 hour. After the incubation, the unbound secondary antibodies were washed and 50 μl of the Streptavidin-PE was added. After the 30 minutes of incubation, the samples/standards were washed and resuspended the microparticles in 100 μl of wash buffer. Samples/standards were read using a Luminex analyzer.

[2] = tested on: IL-18 production in THP-1 cells; assay: IL-18 production in THP-1 cells stimulated with TNFα; assay type: cell-based, human; settings: 0.5 μM
Protocol: as §1

[3] = tested on: IL-8 production in THP-1 cells; assay: IL-8 production in THP-1 cells stimulated with TNFα; assay type: cell-based, human; settings: 0.5 μM
Protocol: as §1

[4] = tested on: Gram^+ bacteria, mainly staphylococci and streptococci; assay: Antibacterial activity, disc diffusion method; assay type: cell-based
Protocol: (§2) FIG. 10: Antibacterial features of colabomycin E—disc diffusion method. Colabomycin E samples were applied to standard 6 mm discs; therefore the zone diameters bellow 7 mm mean no growth inhibition. The strains kindly provided by the Czech National Collection of Type Cultures.
as §1

Gram^− = assay: Antibacterial activity, disc diffusion method; assay type: cell-based
Protocol: as §2, §1

[5] = tested on: IL-6 production in THP-1 cells; assay: IL-6 production in THP-1 cells stimulated with TNFα; assay type: cell-based, human; settings: 0.5 μM
Protocol: as §1

[6] = tested on: human leukemic Jurkat cells; assay: Pro-apoptotic features, Annexin V-FITC flow cytometry; assay type: cell-based; settings: 4 hours
Protocol: Proapoptotic features were assayed using human Jurkat cells. The cells were cultivated in RPMI medium supplemented with 10% FBS and antibiotics. Just before experiments cells were plated into the fresh medium at 4×10^5 cells/ml in 24-well cultivation plates. They were treated with increasing concentrations of manumycin A (positive control) and colabomycin E for 4 hours. Cells were then harvested by centrifugation and apoptotic cells were labeled by Annexin V-FITC. The stained cells were subsequently analyzed by flow cytometry analysis in a Guava EasyCyte flow cytometer and the obtained data were evaluated using FlowJo software.)

## CCCC[C@@H](C)/C=C(C)/C=C(\C)C(=O)NC1=C[C@@](O)(/C=C/C=C/C=C/C(=O)NC2=C(O)CCC2=O)[C@@H]2O[C@@H]2C1=O [manumycin A, reference compound]
[1]
  concentration at which the dose curve reached an inhibitory plateau (IL-1β release): 0.5 µM
  concentration from which IL-1β release is significantly inhibited: 0.25 µM

## Colabomycin E
[2]
  IL-18 production: inhibit
[3]
  IL-8 production: inhibit
[4]
  anti-bacterial effects (overall): quite mild
[4]; in higher concentrations
  growth of Gram+ bacteria: suppresses growth
Gram^−
  effect on Gram− bacteria: no effect
[5]
  IL-6 production: inhibit
[1]
  IL-1β release from THP-1 cells: significantly inhibited
  concentration at which the dose curve reached an inhibitory plateau (IL-1β release): 0.5 µM
  concentration from which IL-1β release is significantly inhibited: 0.25 µM
[6]; 5 μM
  pro-apoptotic features: weak pro-apoptotic features
[6]
  pro-apoptotic effect relative to manumycin A: substantially weaker
